Laboratory results: PubChem BioAssay (NCI)
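Exposure lasted 48 hours, with cells grown in 96-well plates and compounds tested at five concentrations. Here, GI50 denotes the concentration required for 50% inhibition of growth. TGI: total growth inhibition.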

What was measured:
Assay in all cases: NCI anticancer screen, dose series, 48 h
[1] = system: DMS 114 small cell lung
[2] = system: NCI-H23 lung
[3] = system: UACC-257 melanoma
[4] = system: SF-268 CNS
[5] = system: XF 498 CNS
[6] = system: RPMI-8226 leukemia
[7] = system: MOLT-4 leukemia
[8] = system: HCT-116 colon
[9] = system: UO-31 renal
[10] = system: ACHN renal
[11] = system: DLD-1 colon
[12] = system: HOP-92 NSCLC
[13] = system: TK-10 renal
[14] = system: SK-MEL-28 melanoma
[15] = system: LXFL 529 NSCLC
[16] = system: A549 NSCLC
[17] = system: SF-539 CNS
[18] = system: M14 melanoma
[19] = system: U251 CNS
[20] = system: KM12 colon
[21] = system: COLO 205 colon
[22] = system: OVCAR-5 ovarian
[23] = system: IGROV1 ovarian
[24] = system: SK-MEL-2 melanoma
[25] = system: K-562 leukemia
[26] = system: SNB-19 CNS
[27] = system: HT29 colon
[28] = system: SNB-75 CNS
[29] = system: EKVX NSCLC
[30] = system: SK-MEL-5 melanoma
[31] = system: SF-295 CNS
[32] = system: HCC-2998 colon
[33] = system: HCT-15 colon
[34] = system: OVCAR-8 ovarian
[35] = system: MALME-3M melanoma
[36] = system: NCI-H460 lung
[37] = system: CCRF-CEM leukemia
[38] = system: M19-MEL melanoma
[39] = system: OVCAR-4 ovarian
[40] = system: SK-OV-3 ovarian
[41] = system: NCI-H226 lung
[42] = system: DMS 273 small cell lung
[43] = system: HL-60(TB) leukemia
[44] = system: SN12C renal
[45] = system: HOP-18 NSCLC
[46] = system: SNB-78 CNS
[47] = system: 786-0 renal
[48] = system: OVCAR-3 ovarian

Molecule O=S(=O)([O-])[O-].[OH3+].[OH3+].[OH3+].[Ru+2].c1ccccc1 has a GI50 [1] of over 100 µM, a TGI [1] of over 100 µM and a GI50 [2] of over 100 µM. It also gave a TGI [2] of over 100 µM, a GI50 [3] of over 100 µM and a TGI [3] of over 100 µM. For the same molecule, the GI50 [4] was over 100 µM, the TGI [4] was over 100 µM and the GI50 [5] was over 100 µM. The TGI [5] was over 100 µM, the GI50 [6] was over 100 µM and the TGI [6] was over 100 µM. The GI50 [7] was over 100 µM, the TGI [7] was over 100 µM and the GI50 [8] was over 100 µM. For the same molecule, the TGI [8] was over 100 µM, the GI50 [9] was over 100 µM and the TGI [9] was over 100 µM. It also gave a GI50 [10] of over 100 µM, a TGI [10] of over 100 µM and a GI50 [11] of over 100 µM. The TGI [11] was over 100 µM, the GI50 [12] was over 100 µM and the TGI [12] was over 100 µM. It also gave a GI50 [13] of over 100 µM, a TGI [13] of over 100 µM and a GI50 [14] of over 100 µM. For the same molecule, the TGI [14] was over 100 µM, the GI50 [15] was over 100 µM and the TGI [15] was over 100 µM. It also gave a GI50 [16] of over 100 µM, a TGI [16] of over 100 µM and a GI50 [17] of over 100 µM. The TGI [17] was over 100 µM, the GI50 [18] was over 100 µM and the TGI [18] was over 100 µM. For the same molecule, the GI50 [19] was over 100 µM, the TGI [19] was over 100 µM and the GI50 [20] was over 100 µM. The TGI [20] was over 100 µM, the GI50 [21] was over 100 µM and the TGI [21] was over 100 µM. The GI50 [22] was over 100 µM, the TGI [22] was over 100 µM and the GI50 [23] was over 100 µM. For the same molecule, the TGI [23] was over 100 µM, the GI50 [24] was over 100 µM and the TGI [24] was over 100 µM. For the same molecule, the GI50 [25] was over 100 µM, the TGI [25] was over 100 µM and the GI50 [26] was over 100 µM. It also gave a TGI [26] of over 100 µM, a GI50 [27] of over 100 µM and a TGI [27] of over 100 µM. The GI50 [28] was over 100 µM, the TGI [28] was over 100 µM and the GI50 [29] was over 100 µM. The TGI [29] was over 100 µM, the GI50 [30] was over 100 µM and the TGI [30] was over 100 µM. The GI50 [31] was over 100 µM, the TGI [31] was over 100 µM and the GI50 [32] was over 100 µM. The TGI [32] was over 100 µM, the GI50 [33] was over 100 µM and the TGI [33] was over 100 µM. The GI50 [34] was over 100 µM, the TGI [34] was over 100 µM and the GI50 [35] was over 100 µM. It also gave a TGI [35] of over 100 µM, a GI50 [36] of over 100 µM and a TGI [36] of over 100 µM. The GI50 [37] was over 100 µM, the TGI [37] was over 100 µM and the GI50 [38] was over 100 µM. The TGI [38] was over 100 µM, the GI50 [39] was over 100 µM and the TGI [39] was over 100 µM. It also gave a GI50 [40] of over 100 µM, a TGI [40] of over 100 µM and a GI50 [41] of over 100 µM. For the same molecule, the TGI [41] was over 100 µM, the GI50 [42] was over 100 µM and the TGI [42] was over 100 µM. It also gave a GI50 [43] of over 100 µM, a TGI [43] of over 100 µM and a GI50 [44] of over 100 µM. For the same molecule, the TGI [44] was over 100 µM, the GI50 [45] was over 100 µM and the TGI [45] was over 100 µM. The GI50 [46] was over 100 µM, the TGI [46] was over 100 µM and the GI50 [47] was over 100 µM. For the same molecule, the TGI [47] was over 100 µM, the GI50 [48] was over 100 µM and the TGI [48] was over 100 µM.
